ChEMBL document CHEMBL1201862, “PubChem BioAssay data set” (2004)
Calls of active or inactive are those of the source.

Assays:
HeLa = assay: viability loss in HeLa cells – cell-based, 24 h, cherry-picked samples, cytotoxicity control, dose response (AID 504726); assay type: functional; conditions: Homo sapiens
CHO = CHO cell viability loss, potency – luminescence, cytotoxicity control for TLR9-MyD88 binding inhibitor project, dose response (AID 588339); assay type: functional, cell-based, hamster; conditions: Cricetulus griseus;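 further: CHO cells stably coexpressing TLR9 and MyD88 fusions from primary screen; compound exposure lasted 48 hours before viability readout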
Troponin, cardiac muscle = Troponin, cardiac muscle (Homo sapiens, UniProt P19429+P45379+P63316); assay: Fluorescence-based biochemical high throughput dose response assay for activators of the calcium sensitivity of cardiac Regulated Thin Filaments (RTF). [Related pubchem assays (depositor defined):AID493008, AID493018, AID504382, AID504383]; assay type: protein-complex assay
Beta Lactamase = Beta Lactamase (Pseudomonas aeruginosa, UniProt Q932Y6); assay: BLA reporter interference, concentration series – BLA reporter cells, FRET fluorescence, artefact control for TLR9-MyD88 binding inhibitor project, dose response (AID 588341); assay type: cell-based;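 further: cell based assay in CHO-K1 cells stably expressing beta-lactamase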
[1] = biological target: T1, Sentrin-specific protease 8 (Homo sapiens, UniProt Q96LD8); assay: inhibition of human SENP8 cleavage activity – biochemical, luminescence, SAR follow-up (AID 504501); assay type: functional
T1 sequence (Q96LD8 whole entry): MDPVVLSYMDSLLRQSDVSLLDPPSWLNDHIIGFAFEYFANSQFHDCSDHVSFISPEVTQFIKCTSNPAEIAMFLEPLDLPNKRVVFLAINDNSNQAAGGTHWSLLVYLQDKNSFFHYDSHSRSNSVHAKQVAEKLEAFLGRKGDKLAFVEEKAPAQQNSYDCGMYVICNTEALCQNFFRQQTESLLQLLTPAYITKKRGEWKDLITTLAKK

[2] = biological target: T2, Sentrin-specific protease 6 (Homo sapiens, UniProt Q9GZR1); assay: SAR Analysis of small molecule inhibitors of Sentrin-specific protease 6 (SENP6) using a Luminescent assay. [Related pubchem assays (depositor defined):AID2582, AID2599]; assay type: functional
T2 sequence (Q9GZR1 whole entry): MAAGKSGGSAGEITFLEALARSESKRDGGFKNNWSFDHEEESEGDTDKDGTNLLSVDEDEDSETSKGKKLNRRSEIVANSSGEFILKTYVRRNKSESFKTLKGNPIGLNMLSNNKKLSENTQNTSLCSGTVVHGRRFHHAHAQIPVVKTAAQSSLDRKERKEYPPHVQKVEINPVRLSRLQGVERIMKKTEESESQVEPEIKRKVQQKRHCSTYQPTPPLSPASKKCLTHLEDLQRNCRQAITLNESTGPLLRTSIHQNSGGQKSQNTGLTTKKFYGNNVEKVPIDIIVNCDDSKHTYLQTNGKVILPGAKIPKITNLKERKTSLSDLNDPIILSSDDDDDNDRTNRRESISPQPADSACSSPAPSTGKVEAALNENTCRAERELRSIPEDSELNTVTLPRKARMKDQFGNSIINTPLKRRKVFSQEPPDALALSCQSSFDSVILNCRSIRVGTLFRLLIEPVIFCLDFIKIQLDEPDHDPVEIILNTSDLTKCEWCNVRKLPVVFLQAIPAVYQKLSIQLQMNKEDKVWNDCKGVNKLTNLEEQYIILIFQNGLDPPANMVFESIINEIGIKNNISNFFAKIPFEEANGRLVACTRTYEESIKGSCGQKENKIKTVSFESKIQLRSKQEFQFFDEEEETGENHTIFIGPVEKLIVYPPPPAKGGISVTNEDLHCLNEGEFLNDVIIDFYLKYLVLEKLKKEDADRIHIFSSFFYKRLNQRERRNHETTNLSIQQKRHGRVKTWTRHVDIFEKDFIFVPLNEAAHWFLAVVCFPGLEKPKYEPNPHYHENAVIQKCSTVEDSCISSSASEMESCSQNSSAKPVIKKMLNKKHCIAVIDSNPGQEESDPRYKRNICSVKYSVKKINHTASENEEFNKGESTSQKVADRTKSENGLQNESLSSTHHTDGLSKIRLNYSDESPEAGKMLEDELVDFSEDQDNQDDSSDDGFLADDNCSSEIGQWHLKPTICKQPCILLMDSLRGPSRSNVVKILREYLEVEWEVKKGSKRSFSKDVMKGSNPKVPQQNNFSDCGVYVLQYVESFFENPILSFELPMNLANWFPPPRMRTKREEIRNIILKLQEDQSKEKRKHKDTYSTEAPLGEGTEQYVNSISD

[3] = biological target: T3, Sentrin-specific protease 7 (Homo sapiens, UniProt Q9BQF6); assay: inhibition of human SENP7 cleavage activity – biochemical, luminescence, SAR follow-up (AID 504497); assay type: functional
T3 sequence (Q9BQF6 whole entry): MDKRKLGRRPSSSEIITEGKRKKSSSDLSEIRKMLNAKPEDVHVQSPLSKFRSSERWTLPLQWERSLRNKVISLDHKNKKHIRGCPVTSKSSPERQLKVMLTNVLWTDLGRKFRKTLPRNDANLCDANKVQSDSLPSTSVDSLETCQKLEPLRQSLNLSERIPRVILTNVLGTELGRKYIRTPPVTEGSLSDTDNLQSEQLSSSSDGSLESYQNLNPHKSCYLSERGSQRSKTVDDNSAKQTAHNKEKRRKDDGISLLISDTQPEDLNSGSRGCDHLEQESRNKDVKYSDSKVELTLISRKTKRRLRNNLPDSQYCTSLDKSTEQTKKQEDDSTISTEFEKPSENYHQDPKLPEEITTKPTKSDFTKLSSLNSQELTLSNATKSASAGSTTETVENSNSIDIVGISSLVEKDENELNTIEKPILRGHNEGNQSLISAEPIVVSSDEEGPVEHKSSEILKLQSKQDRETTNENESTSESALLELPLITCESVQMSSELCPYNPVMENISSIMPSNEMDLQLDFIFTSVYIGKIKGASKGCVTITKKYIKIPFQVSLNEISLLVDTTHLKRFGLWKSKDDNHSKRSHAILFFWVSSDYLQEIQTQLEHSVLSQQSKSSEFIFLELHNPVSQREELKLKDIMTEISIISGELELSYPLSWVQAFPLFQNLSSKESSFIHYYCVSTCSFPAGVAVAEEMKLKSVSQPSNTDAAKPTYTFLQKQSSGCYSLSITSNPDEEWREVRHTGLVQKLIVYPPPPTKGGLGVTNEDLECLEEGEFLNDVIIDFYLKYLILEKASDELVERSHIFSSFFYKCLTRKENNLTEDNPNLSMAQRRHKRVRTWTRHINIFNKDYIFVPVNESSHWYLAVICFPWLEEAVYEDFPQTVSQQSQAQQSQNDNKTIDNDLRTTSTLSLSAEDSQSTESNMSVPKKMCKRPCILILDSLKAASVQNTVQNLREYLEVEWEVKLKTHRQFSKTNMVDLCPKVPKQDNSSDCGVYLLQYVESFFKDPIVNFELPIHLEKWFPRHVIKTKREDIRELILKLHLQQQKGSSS

Caspase-3 = biological target: T4, Caspase-3 (Homo sapiens, UniProt P42574); assay: SAR Analysis of small molecule inhibitors of Sentrin-specific proteases (SENPs) using a Caspase-3 Selectivity assay. [Related pubchem assays (depositor defined):AID2540, AID2599, AID434973, AID489001]; assay type: functional
T4 sequence (P42574 whole entry): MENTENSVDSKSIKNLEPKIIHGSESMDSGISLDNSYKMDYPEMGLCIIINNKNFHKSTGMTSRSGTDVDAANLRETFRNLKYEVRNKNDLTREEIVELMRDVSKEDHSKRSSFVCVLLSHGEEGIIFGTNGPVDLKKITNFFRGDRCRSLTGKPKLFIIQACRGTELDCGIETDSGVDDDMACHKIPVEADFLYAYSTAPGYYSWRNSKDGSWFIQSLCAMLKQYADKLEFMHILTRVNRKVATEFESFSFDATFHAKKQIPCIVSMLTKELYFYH

Streptococcus = assay: GAS UMAA2166 growth inhibition – luminescence, BacTiterGlo, counter-screen for streptokinase expression inhibitor project, dose response (AID 1915); assay type: functional, organism-based;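 further: potency for reduction of bacterial viability or growth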
[4] = biological target: Serine/threonine-protein phosphatase (Candida dubliniensis (strain CD36 / CBS 7987 / NCPF 3949 / NRRLY-17841) (Yeast), UniProt B9W6M3); assay: blockers of CaCl2-induced CDRE-lacZ signaling – S. cerevisiae, luminescence, secondary, dose response (AID 2388); assay type: functional, cell-based;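 further: yeast reporter cells carrying a calcineurin-responsive lacZ construct stimulated with calcium chloride; luminescent beta-galactosidase reporter signal in whole cells rather than isolated phosphatase activity; potency for inhibition where a drop in reporter signal means calcineurin blockade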
[5] = luciferase reporter signal suppression in cells – H4 neuroglioma cells, luminescence, dose response (AID 1990); assay type: functional, cell-based
[6] = NIH-3T3 fibroblast cytotoxicity, dose response, cytotoxicity control, cell-based, fluorescence, Alamar Blue, secondary assay (AID 2327); assay type: functional;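 further: NIH-3T3 mouse fibroblasts cultured with fluconazole at 8 µg/mL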
[7] = Luminescence Cell-Based Dose Response HTS to Identify Inhibitors of 5'UTR Stem-Loop Driven Prion Protein mRNA Translation in H4 Neuroglioblastoma Cells. [Related pubchem assays: 1827 (Project Summary), 1813 (Primary HTS)]; assay type: functional
[8] = test system: Streptococcus sp. 'group A'; assay: Streptococcus pyogenes SK(-)GAS viability under kanamycin – luminescence, BacTiterGlo, confirmation, counter-screen for streptokinase expression inhibitor project, dose response (AID 1900); assay type: functional, organism-based
[9] = fluconazole-exposed Candida albicans growth modulators – fluorescence, retest, confirmation (AID 2467); assay type: functional, cell-based
[10] = biological target: ATP-dependent molecular chaperone HSP82 (Candida albicans (strain WO-1) (Yeast), UniProt C4YTQ8); assay: steroid-induced GRE reporter decrease in yeast – S. cerevisiae, luminescence, Hsp90 inhibitor project, dose response (AID 2400); assay type: functional, cell-based;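 further: beta-galactosidase luminescence from glucocorticoid response element reporter as proxy for Hsp90 function; inhibitor potency where signal loss means Hsp90 inhibition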
Streptokinase A = biological target: T5, Streptokinase A (Streptococcus pyogenes serotype M1, UniProt P10520); assay: viability-normalized secreted streptokinase activity reduction – plasminogen activation absorbance, OD405, dose response (AID 1914); assay type: functional, Streptococcus pyogenes M1 GAS;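 further: secreted streptokinase activity via plasminogen activation per viability signal from cell pellet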
T5 sequence (P10520 whole entry): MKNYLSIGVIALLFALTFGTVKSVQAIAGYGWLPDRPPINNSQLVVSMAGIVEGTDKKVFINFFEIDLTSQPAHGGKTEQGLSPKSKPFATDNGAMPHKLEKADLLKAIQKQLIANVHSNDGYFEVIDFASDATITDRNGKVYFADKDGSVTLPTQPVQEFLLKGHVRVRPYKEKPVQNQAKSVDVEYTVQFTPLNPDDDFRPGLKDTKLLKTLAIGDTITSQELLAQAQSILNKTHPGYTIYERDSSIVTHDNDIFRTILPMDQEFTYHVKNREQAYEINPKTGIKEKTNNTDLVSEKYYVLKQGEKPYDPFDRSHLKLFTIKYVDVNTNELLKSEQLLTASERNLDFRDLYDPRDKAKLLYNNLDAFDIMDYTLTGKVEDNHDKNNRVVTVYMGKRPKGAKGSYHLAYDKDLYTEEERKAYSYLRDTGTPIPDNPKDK

[11] = alpha-synuclein stem-loop luciferase translation blockers – H4 neuroglioma cells, luminescence, confirmation (AID 1988); assay type: functional, cell-based
cells = assay type: functional, cell-based; conditions: HEK-CNG
[12] = biological target: T6, COUP transcription factor 2 (Homo sapiens, UniProt P24468); assay: Luminescence-based cell-based high throughput dose response assay to identify inhibitors of COUP-TFII (NR2F2).; assay type: functional;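 further: HEK293 cells transiently cotransfected with COUP-TFII expression vector and reporter; luciferase reporter luminescence driven by COUP-TFII from the pX2-168 reporter plasmid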
T6 sequence (P24468 whole entry): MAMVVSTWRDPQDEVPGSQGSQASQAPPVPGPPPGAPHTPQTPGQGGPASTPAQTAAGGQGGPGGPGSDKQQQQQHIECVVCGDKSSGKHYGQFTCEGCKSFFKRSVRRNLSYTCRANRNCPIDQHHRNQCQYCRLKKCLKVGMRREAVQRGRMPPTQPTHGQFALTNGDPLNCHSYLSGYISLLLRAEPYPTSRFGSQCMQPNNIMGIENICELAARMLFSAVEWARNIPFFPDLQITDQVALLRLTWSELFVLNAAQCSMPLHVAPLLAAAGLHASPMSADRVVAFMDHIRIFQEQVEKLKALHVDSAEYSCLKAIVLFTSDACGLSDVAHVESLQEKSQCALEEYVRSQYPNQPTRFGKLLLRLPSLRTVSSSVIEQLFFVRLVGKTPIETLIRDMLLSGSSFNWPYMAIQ

[13] = non-specific 3'UTR reporter inhibition in Clone20-Shn3RL – cell-based, Renilla luciferase, cherry-picked, counter-screen for Shn3 inhibitor project, dose response (AID 624133); assay type: functional
Galanin receptor type 3 = biological target: T7, Galanin receptor type 3 (Homo sapiens, UniProt O60755); assay: Fluorescence-based cell-based primary high throughput dose response assay to identify antagonists of the Galanin Receptor 3 (GalR3).; assay type: functional
T7 sequence (O60755 whole entry): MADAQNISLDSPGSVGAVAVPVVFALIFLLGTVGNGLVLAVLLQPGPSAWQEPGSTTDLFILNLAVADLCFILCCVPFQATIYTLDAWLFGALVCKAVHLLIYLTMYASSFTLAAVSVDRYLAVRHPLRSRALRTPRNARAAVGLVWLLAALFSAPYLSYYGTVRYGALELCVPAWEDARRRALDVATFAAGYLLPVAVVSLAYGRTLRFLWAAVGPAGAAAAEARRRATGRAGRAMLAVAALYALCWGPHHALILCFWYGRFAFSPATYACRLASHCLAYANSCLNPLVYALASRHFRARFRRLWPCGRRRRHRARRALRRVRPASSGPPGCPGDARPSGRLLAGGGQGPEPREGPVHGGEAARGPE

ATP-dependent molecular chaperone HSP82, sequence (C4YTQ8 whole entry): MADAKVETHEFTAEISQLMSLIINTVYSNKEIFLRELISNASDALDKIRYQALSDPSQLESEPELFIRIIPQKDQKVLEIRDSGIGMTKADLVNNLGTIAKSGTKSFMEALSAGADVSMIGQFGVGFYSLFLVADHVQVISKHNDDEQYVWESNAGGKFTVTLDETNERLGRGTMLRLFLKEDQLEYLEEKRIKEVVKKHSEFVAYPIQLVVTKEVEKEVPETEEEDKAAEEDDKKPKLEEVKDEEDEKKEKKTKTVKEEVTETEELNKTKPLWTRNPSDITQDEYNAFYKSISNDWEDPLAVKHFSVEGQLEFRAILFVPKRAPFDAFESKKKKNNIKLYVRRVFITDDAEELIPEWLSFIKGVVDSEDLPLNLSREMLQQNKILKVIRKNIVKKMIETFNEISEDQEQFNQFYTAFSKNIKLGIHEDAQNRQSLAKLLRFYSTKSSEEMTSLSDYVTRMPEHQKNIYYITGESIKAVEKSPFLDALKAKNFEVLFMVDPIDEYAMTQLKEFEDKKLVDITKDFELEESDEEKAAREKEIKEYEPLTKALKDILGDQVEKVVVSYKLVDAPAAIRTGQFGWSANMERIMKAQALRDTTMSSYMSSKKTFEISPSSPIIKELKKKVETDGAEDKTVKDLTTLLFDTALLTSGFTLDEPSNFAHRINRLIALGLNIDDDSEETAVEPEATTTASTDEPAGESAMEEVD
Serine/threonine-protein phosphatase, sequence (B9W6M3 whole entry): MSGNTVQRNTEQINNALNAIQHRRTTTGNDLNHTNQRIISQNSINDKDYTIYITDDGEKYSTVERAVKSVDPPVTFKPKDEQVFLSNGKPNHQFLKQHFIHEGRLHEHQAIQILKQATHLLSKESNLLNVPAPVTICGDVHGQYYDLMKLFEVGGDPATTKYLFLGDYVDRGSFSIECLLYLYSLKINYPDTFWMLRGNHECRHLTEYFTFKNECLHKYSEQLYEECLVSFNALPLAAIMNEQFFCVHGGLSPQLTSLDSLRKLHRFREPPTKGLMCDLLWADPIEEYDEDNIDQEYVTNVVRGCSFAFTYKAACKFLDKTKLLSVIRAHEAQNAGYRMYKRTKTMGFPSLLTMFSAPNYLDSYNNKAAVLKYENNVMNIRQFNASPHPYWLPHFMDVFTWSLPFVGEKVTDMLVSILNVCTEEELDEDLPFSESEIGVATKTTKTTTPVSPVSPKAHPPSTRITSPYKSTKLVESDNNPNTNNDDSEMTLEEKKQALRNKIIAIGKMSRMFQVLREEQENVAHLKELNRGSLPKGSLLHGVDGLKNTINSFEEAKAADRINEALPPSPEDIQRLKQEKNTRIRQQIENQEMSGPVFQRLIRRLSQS
Beta Lactamase, sequence (Q932Y6 whole entry): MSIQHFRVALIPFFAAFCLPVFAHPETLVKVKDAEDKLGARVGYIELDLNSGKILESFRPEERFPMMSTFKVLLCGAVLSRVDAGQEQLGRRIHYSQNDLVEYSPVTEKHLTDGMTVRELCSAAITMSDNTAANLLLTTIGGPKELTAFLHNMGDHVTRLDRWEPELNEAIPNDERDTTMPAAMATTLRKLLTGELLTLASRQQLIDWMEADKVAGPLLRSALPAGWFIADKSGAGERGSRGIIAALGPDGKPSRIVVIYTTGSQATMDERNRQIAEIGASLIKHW

## O=C1c2cccc3c(N4CCCCC4)ccc(c23)C(=O)N1c1cccc(O)c1
HeLa
  AC50: 81.5 µM (active)
CHO
  IC50: > 49.7 µM (inactive)
Troponin, cardiac muscle
  EC50: 1.83 µM (active)
Beta Lactamase
  IC50: 5.24 µM (active)

## Cc1ccc(Cl)c2sc(NC(=O)c3ccc(S(=O)(=O)N4CC(C)CC(C)C4)cc3)nc12 (stereo unspecified)
[1]
  IC50: > 99 µM (inactive)
[2]
  IC50: > 99 µM (inactive)
[3]
  IC50: > 99 µM (inactive)
Caspase-3
  IC50: > 99 µM (inactive)

## Cc1cccc(-c2nc(/C=C/c3ccc(F)cc3)no2)c1
[1]
  IC50: > 99 µM (inactive)
[2]
  IC50: > 99 µM (inactive)
[3]
  IC50: > 99 µM (inactive)
Caspase-3
  IC50: > 99 µM (inactive)

## CC(C)(C)c1ccc(CSc2cnn(C(C)(C)C)c(=O)c2Cl)cc1 [PYRIDABEN]
Streptococcus
  EC50: 123 µM (active)
[4]
  EC50: > 180 µM (inactive)
[5]
  EC50: > 120 µM (not active)
[6]
  EC50: 103 µM (active)
[7]
  EC50: > 120 µM (not active)
[8]
  EC50: 4.13 µM (active)
[9]
  EC50: 0.211 µM (active)
[10]
  EC50: > 160 µM (inactive)
Streptokinase A
  EC50: 20.8 µM (active)
[11]
  EC50: > 120 µM (not active)
cells
  EC50: > 29.9 µM (inactive)
[12]
  IC50: 0.0619 µM (active)
[13]
  AC50: < 0.26 µM (active)
Galanin receptor type 3
  IC50: 0.00657 µM (active)
